Calls of active or inactive are those of the source. The rule behind the calls is not given here.
Key:
[1] = Induction of Zebrafish embryo skeletal development assessed as fatality rate measured at percentage concentration incubated after 72 hrs post fertilization by Alcian blue staining based assay; type: functional, Danio rerio
[2] = Induction of Zebrafish Larva cartilage development assessed as increase in bone mineralization at 0.3 % measured at 6 days post fertilization by Alizarin red staining based assay; type: functional, Danio rerio; conditions: time 6 day
Danio rerio [3] = species on record: Danio rerio; experiment: Induction of Zebrafish embryo skeletal development assessed as upregulation of […] gene expression in dent at 0.01 to 0.3 % measured after 72 hrs post fertilization by […] analysis; type: functional, tissue-based; conditions: dose 0.01-0.3 %
Osteoblast = experiment: Induction of osteoblast differentiation in Zebrafish embryo assessed as upregulation of runx2b gene expression in parasphenoid measured at 0.75 to 72 hrs post fertilization at 0.05 to 0.3 % by […] analysis; type: functional; conditions: Danio rerio, dose 0.05-0.3 %, time 0.75-72 hrs
Danio rerio [4] = species on record: Danio rerio; experiment: Induction of Zebrafish embryo skeletal development assessed as increase in Smad5 gene expression level in head at 0.1 % measured for 0.75 to 24 hrs post fertilization by ISH analysis; type: functional, tissue-based; conditions: time 0.75-24 hrs
Danio rerio [5] = species on record: Danio rerio; experiment: Induction of Zebrafish embryo skeletal development assessed as nuclear localization of p-Smad1 in tail at 0.1 % measured at 24 to 72 hrs post fertilization by DAPI staining based analysis; type: functional, tissue-based; conditions: time 24-72 hrs

Cl.N[C@@H]1[C@@H](O)[C@H](O)[C@@H](CO)O[C@H]1O
IC50 [1]: 0.324%
Activity [2]: 79%
Activity (Danio rerio [3]): Active
Activity (Osteoblast): Active
Activity (Danio rerio [4]): Active
Activity (Danio rerio [5]): Active

Reference: ChEMBL document CHEMBL5149973, “Agaricus bisporus-Derived Glucosamine Hydrochloride Facilitates Skeletal Injury Repair through Bmp Signaling in Zebrafish Osteoporosis Model” (J Nat Prod, 2021)
